From paper PMC12346692, “SUL-150 Limits Vascular Remodeling and Ventricular Failure in Pulmonary Arterial Hypertension” (International Journal of Molecular Sciences, 2025)
Values joined by “and” are separate entries in the source; they are usually repeats but may differ in a detail not shown here. Equal entries are not always repeated. Marks after values point to notes of the source that are not given here.

System: PAH rats
Assay: Echocardiogram and hemodynamic measurements in monocrotaline + aortocaval shunt PAH rats
Type: in vivo, rat
Parameters: LVOT VTI / PV Acceleration slope: unit not given here
Method: Animal care and experiments were approved by the Institutional Animal Care and Use Committee (CCD # AVD105002015129) and in accordance with the ARRIVE guidelines. Forty (40) male Wistar rats (Harlan, 7–9 weeks old, weighing 276 ± 15 g) were used. PAH was induced by a single i.p. injection of monocrotaline (60 mg·kg^−1) and the placement of an aortocaval shunt one week later as described previously.
The administration of vehicle and SUL-150 started 7 days post-monocrotaline injection and was performed by the i.p. implantation of osmotic minipumps (Alzet model #2004, Durect Corp., Cupertino, CA, USA) at the time of aortocaval shunt placement. The Lynch coil method was used to circumvent compatibility issues with the osmotic minipump reservoir as described previously. Vehicle (dimethyl sulfoxide (DMSO) or SUL-150 ((R)-(6-hydroxy-2,5,7,8-tetramethylchroman-2-yl)(piperazin-1-yl)methanone, 0.9 M in DMSO, Sulfateq BV, Groningen, The Netherlands) was administered at a flow rate of 0.25 µL·h^−1, accumulating to an approximate dose of 6 mg·kg^−1·day^−1 SUL-150 in a 300 g rat. Animals were weighed, watched for dyspnea, cyanosis, and oedema, and sacrificed preterm when a 15% weight loss or debilitating dyspnea occurred.
Echocardiographic (ECG) examination was performed under isoflurane anesthesia (5% in air during induction, 2% in air during maintenance) via inhalation prior to euthanisation using a Vivid Dimension 7 system and 10S-transducer (GE Healthcare, Waukesha, WI, USA). Ventricular dimensions, eccentricity index, and flow profiles over the aortic, pulmonary, and tricuspid valves were measured in standard views. Cardiac output (mL·min^−1) was calculated using the following equation: CO(mL·min^−1)=(LVOTarea×LVOTVTI)×HR , wherein LVOT area is the area of the left ventricular outflow tract, LVOT VTI is the velocity-time integral and HR is heart rate. Subsequent to ECG, invasive hemodynamic measurements were performed using a closed chest technique as described by others. A fluid-filled pressure catheter was inserted into the right internal jugular vein and guided to the pulmonary artery under pressure waveform monitoring using a bedside monitor. Right ventricular systolic and diastolic pressure, pulmonary arterial pressures, and pulmonary wedge pressure were measured. Mean pulmonary arterial pressure (mmHg) was calculated as: mPAP(mmHg)=(2/3dPAP+1/3sPAP) , wherein dPAP and sPAP are diastolic and systolic pulmonary artery pressure, respectively. Total pulmonary vascular resistance was estimated as: PVRmmHg·mL·min^−1=(mPAP−PCWP)/CO , wherein mPAP, mPWP, and CO are mean pulmonary artery pressure, pulmonary capillary wedge pressure, and cardiac output, respectively.

[1] = PAH rats, ~6 mg·kg^−1·day^−1 i.p. minipump, 28 days
[2] = PAH rats, ~6 mg·kg^−1·day^−1 i.p. minipump, 28 days, echocardiography
[3] = PAH rats, ~6 mg·kg^−1·day^−1 i.p. minipump, 28 days, result in words
[4] = SUL-150-treated versus vehicle-treated PAH rats

In the case of `Cc1c(C)c2c(c(C)c1O)CC[C@](C)(C(=O)N1CCNCC1)O2` [SUL-150, (R)-(6-hydroxy-2,5,7,8-tetramethylchroman-2-yl)(piperazin-1-yl)methanone], the “Pulmonary artery pressure, Diastolic” value [1] was 19.0 ± 5.7 mmHg, the “Pulmonary artery pressure, Mean (mPAP)” value [1] was 27.7 mmHg and 27.7 ± 5.8 mmHg and 27.7 ± 5.8 ^a mmHg and the “Pulmonary wedge pressure, Mean” value [1] was 4.8 ± 1.9 mmHg. The “Tricuspid valve insufficiency, Average grade (0–3)” value [1] was 1.0 ± 1.0 ^a,b, the “Tricuspid valve insufficiency, Mild” value [1] was 14.3% and the “Tricuspid valve insufficiency, Moderate” value [1] was 42.9%. The “Tricuspid valve insufficiency, Severe” value [1] was 0%, the “Vascular resistance, Pulmonary” value (PAH rats, ~6 mg·kg^−1·day^−1 i.p. minipump, 28 days, (mPAP−PCWP)/CO) was 0.12 ± 0.05 mmHg·min·mL^−1 and the LVIDd [2] was 4.27 ± 0.46 mm. The “LVOT Pmax” value [2] was 5.57 ± 3.73 mmHg, the “LVOT VTI” value [2] was 6.16 ± 2.33 and the “LVOT Vmax” value [2] was 1.12 ± 0.39 m·s^−1. The LVOT diameter [2] was 3.37 ± 0.24 ^b mm, the PAAT [2] was 17.07 ± 4.17 ms and the “PV Acceleration slope” value [2] was 65.37 ± 19.75. For the same compound, the “PV Pmax” value [2] was 5.74 ± 1.50 mmHg, the “PV Vmax” value [2] was 1.14 ± 0.19 m·s^−1 and the RVIDd [2] was 3.87 ± 1.37 ^b mm. The RVIDd/LVIDd ratio [2] was 0.92 ± 0.35, the TAPSE [2] was 2.90 ± 0.49 ^b mm and the cardiac output [3] was “normalized”. The heart rate [3] was “normalized”, the “decrease in diastolic pulmonary artery pressure compared to PAH rats” value [4] was 25% and the “decrease in right ventricle inner diameter in diastole versus PAH rats” value [4] was 38%. The “decrease in right ventricular pressure at diastole versus PAH rats” value [4] was 52% and the “increase in stroke volume compared to vehicle-treated PAH rats” value [4] was 68%.
